Where “and” joins values, the source holds several entries; their conditions need not be identical. Identical values can stand only once.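 In this assay, cells in 96-well plates receive the compound at five concentrations for 48 hours. Endpoints are linearly interpolated between the surrounding concentrations. GI50 is the concentration that inhibits growth by half. Definition used: TGI = concentration required for complete inhibition of growth.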
Tests used:
Assay in all cases: NCI-60 cell line screen, 48 h
SNB-19 CNS = system: SNB-19 CNS
NCI-H522 lung = system: NCI-H522 lung
RPMI-8226 leukemia = system: RPMI-8226 leukemia
SN12C renal = system: SN12C renal
ACHN renal = system: ACHN renal
A549 NSCLC = system: A549 NSCLC
SW-620 colon = system: SW-620 colon
EKVX NSCLC = system: EKVX NSCLC
NCI-H23 lung = system: NCI-H23 lung
BT-549 breast = system: BT-549 breast

| Compound | GI50 (SNB-19 CNS) [µM] | TGI (SNB-19 CNS) | GI50 (NCI-H522 lung) [nM] | TGI (NCI-H522 lung) [µM] | GI50 (RPMI-8226 leukemia) | TGI (RPMI-8226 leukemia) | GI50 (SN12C renal) [µM] | TGI (SN12C renal) [µM] | GI50 (ACHN renal) [µM] | TGI (ACHN renal) [µM] | GI50 (A549 NSCLC) [µM] | TGI (A549 NSCLC) [µM] | GI50 (SW-620 colon) | TGI (SW-620 colon) | GI50 (EKVX NSCLC) | TGI (EKVX NSCLC) | GI50 (NCI-H23 lung) | TGI (NCI-H23 lung) | GI50 (BT-549 breast) [µM] | TGI (BT-549 breast) [µM] |
| --- | --- | --- | --- | --- | --- | --- | --- | --- | --- | --- | --- | --- | --- | --- | --- | --- | --- | --- | --- | --- |
| COc1cc2c(cc1OCC(=O)Nc1ccc(Cl)cc1C(=O)c1ccccc1Cl)N=CC1CCCN1C2=O (configuration not stated) | 14.9 | 30.1 µM | 2590 | 7.17 | 20300 nM | 98.8 µM | 13.8 | 27.8 | 11.5 | 23.8 | 16.8 | 33 | 11800 nM | 25.8 µM | 20300 nM | 35.1 µM | 13600 nM | 30.5 µM | – | – |
| COc1ccc(C(C2=C(O)CC(C)OC2=O)C2=C(O)CC(C)OC2=O)cc1 (configuration not stated) | – | > 100 µM | – | > 100 | – | > 100 µM | – | > 100 | – | > 100 | – | > 100 | – | > 100 µM | – | > 100 µM | – | > 100 µM | – | – |
| O=C(Nc1ccc(Cl)c(Cl)c1)c1ccc(NC2=C(Cl)C(=O)N(Cc3ccccc3)C2=O)cc1 | 52.9 | > 100 µM | 13100 | 27.2 | 2020 nM | 4.29 µM | 10.9 | 25.9 | – | – | 11.9 | 27.3 | – | – | 23300 nM | 48.6 µM | 14200 nM | 27.4 µM | 3.29 | 10.6 |
| CCO/C=C\C12CCCC1NC(c1ccccc1)(c1ccccc1)O2 (configuration not stated) | – | > 100 µM | – | 83.3 | – | – | – | 78.3 | – | 92.5 | – | > 100 | – | > 100 µM | – | > 100 µM | – | 80.2 µM | – | – |
| OC1OCC(COc2cc(Cl)c(Cl)cc2Cl)OC1O (configuration not stated) | – | > 100 µM | – | 70.8 | – | 77.9 µM | – | > 100 | – | > 100 | – | > 100 | – | 47.7 µM | – | 81.9 µM | – | > 100 µM | – | – |
| NC(=O)NNC/C(Cl)=C(\Cl)C(=O)O | – | > 100 µM | – | > 100 | – | > 100 µM | – | > 100 | – | > 100 | – | > 100 | – | > 100 µM | – | > 100 µM | – | > 100 µM | – | – |
| CCOC(=O)C1=C(Nc2ccc(OC)cc2)C(N)=NC1=N | 3.68 | > 100 µM | 3120 | > 100 | – | – | 5.14 | > 100 | 8.84 | > 100 | 3.73 | > 100 | 3950 nM | > 100 µM | – | – | 4840 nM | > 100 µM | 5.37 | > 100 |
| COc1cc(C2c3cc4c(cc3[C@@H](NC3CCN(Cc5ccccc5)CC3)C3COC(=O)[C@H]23)OCO4)cc(OC)c1O (some centres not stated) | – | 22.4 µM and 2.94 µM | 82.7 | 0.321 | 151 nM and 54 nM | 2.82 µM and 0.465 µM | 1.85 | 3.89 | – | – | – | 0.178 | 232 nM and 76 nM | 2.42 µM and 1.08 µM | 369 nM and 783 nM | 2.43 µM and 3.96 µM | 126 nM and 40.6 nM | 0.623 µM and 0.224 µM | – | – |
| O=C(NC1CCC[C@H]1OC(=O)c1ccccc1)c1ccccc1 (some centres not stated) | – | > 100 µM | – | – | – | – | – | > 100 | – | – | – | > 100 | – | > 100 µM | – | > 100 µM | – | > 100 µM | – | – |
| O=C(Nc1ccc(Br)cc1)C(=O)C(C(=O)c1ccc(Cl)c(Cl)c1)C1OC(=O)c2ccccc21 (configuration not stated) | – | 97.8 µM | – | 47.9 | – | > 100 µM | – | 68.3 | – | 35.5 | – | 46 | – | 38.4 µM | – | > 100 µM | – | 29.3 µM | – | – |
| CC(NNC(=S)N1CCN(c2ccccn2)CC1)c1nccc2ccccc12 (configuration not stated) | – | 17 µM | – | 14 | – | – | – | 11.3 | – | 10.9 | – | 13.2 | – | 20.1 µM | – | 11.4 µM | – | 13.7 µM | – | 22.6 |
| CCCCCCCCCCCCCCNCC(OC)OC | – | 33.8 µM | – | 34.2 | – | – | – | 30.9 | – | 31.1 | – | 35.3 | – | 33.2 µM | – | 34.2 µM | – | 36.8 µM | – | – |
| CC1C(c2ccccc2)N(C)C(c2ccccc2)C(C)C1(O)c1ccccc1 (configuration not stated) | – | > 100 µM | – | > 100 | – | – | – | > 100 | – | > 100 | – | > 100 | – | > 100 µM | – | > 100 µM | – | > 100 µM | – | – |
| C/C(=N\N=C(N)N)C(CN1CCOCC1)C(c1ccccc1)c1c(O)c2ccccc2oc1=O (configuration not stated) | – | > 100 µM | – | > 100 | – | > 100 µM | – | > 100 | – | > 100 | – | > 100 | – | > 100 µM | – | > 100 µM | – | > 100 µM | – | – |
| O=C1c2ccccc2C(=O)N1CC#CCO | – | > 100 µM | – | > 100 | – | – | – | > 100 | – | > 100 | – | > 100 | – | > 100 µM | – | > 100 µM | – | > 100 µM | – | – |
| CCN1CCN(C(=O)[C@]23CC[C@@H](C)[C@H](C)[C@@H]2C2=CC[C@@H]4[C@@]5(C)CCC(=O)C(C)(C)[C@@H]5CC[C@@]4(C)[C@]2(C)CC3)CC1 | 0.849 | 1.72 µM | 831 | 1.75 | – | – | 0.776 | 1.48 | 1.33 | 4.38 | 1.47 | 5.98 | 902 nM | 1.76 µM | 916 nM | 2.42 µM | 1080 nM | 2.9 µM | 0.833 | 1.58 |
| CC1(C)CC(=O)C(CC2C(=O)CCCC2=O)C(=O)C1 | – | > 100 µM | – | > 100 | – | – | – | > 100 | – | > 100 | – | > 100 | – | > 100 µM | – | > 100 µM | – | > 100 µM | – | – |
| O=C(CC12C3C4C1C1C2C3C41CC(=O)NO)NO (configuration not stated) | – | > 100 µM | – | 77.4 | – | > 100 µM | – | > 100 | – | > 100 | – | > 100 | – | > 100 µM | – | > 100 µM | – | > 100 µM | – | – |
| C=CCC1(CN(C)C)CC/C(=C\c2ccc3c(c2)OCO3)C1=O (configuration not stated) | – | > 100 µM | – | 40.2 | – | 59.4 µM | – | > 100 | – | > 100 | – | > 100 | – | > 100 µM | – | 66.9 µM | – | > 100 µM | – | – |
| CC1(c2ccc(F)cc2)C2C(=O)NC(=O)C1C(=O)NC2=O (configuration not stated) | – | > 100 µM | – | > 100 | – | > 100 µM | – | > 100 | – | > 100 | – | > 100 | – | > 100 µM | – | > 100 µM | – | > 100 µM | – | – |
| C=CC1=C(C)C(/C=c2\[nH]/c(=C/c3[nH]c(CC4NC(=O)C(C)/C4=C\C)c(C)c3CCC(=O)O)c(CC(=O)O)c2C)=NC1=O (configuration not stated) | – | > 100 µM | – | > 100 | – | – | – | > 100 | – | > 100 | – | > 100 | – | > 100 µM | – | > 100 µM | – | > 100 µM | – | – |
